Where two headings read alike, the source gives them in different places.
Experiments:
Phytophthora infestans = format: in vivo; details: tomato plants, infected 5 days after spraying, rated after 6 days, efficacy in % of untreated control (Abbot)
[1] = test system: Pyrenophora [syn. Drechslera] teres; experiment: Activity against net blotch of barley caused by Pyrenophora teres (protective spray on potted barley seedlings); format: in vivo; details: barley cv. Igri, inoculated 5 days after spraying, rated after 6 days, efficacy in % of untreated control (Abbot)

Row | Structure (SMILES) | Observed efficacy (%) (Phytophthora infestans; 16 ppm) | Observed efficacy (%) (Phytophthora infestans; 63 ppm) | Observed efficacy (%) ([1]; 16 ppm) | Observed efficacy (%) ([1]; 63 ppm)
1 | CO/C=C(/C(=O)OC)c1ccccc1CO/N=C(C)/C=C/c1ccc(Cl)cc1 [enestroburin, methyl 2-{2-[3-(4-chlorophenyl)-1-methylallylideneaminooxymethyl]phenyl}-3-methoxyacrylate] | 0 | 11 | 44 | 56
2 | O=C(Nc1ccccc1-c1ccc(Cl)cc1)c1cccnc1Cl [boscalid, 2-chloro-N-(4′-chlorobiphenyl-2-yl)nicotinamide] | 0 | – | – | –
3 | COCC(=O)N(c1c(C)cccc1C)C(C)C(=O)OC (racemic) [metalaxyl, methyl N-(methoxyacetyl)-N-(2,6-xylyl)-DL-alaninate] | – | – | 0 | –
